Experiments:
[1] = target: 5-hydroxytryptamine receptor 6 (Homo sapiens, UniProt P50406)
Substance-P receptor = Substance-P receptor (Homo sapiens, UniProt P25103)
Estrogen receptor beta = Estrogen receptor beta (Homo sapiens, UniProt Q92731)
[2] = target: 5-hydroxytryptamine receptor 2B (Homo sapiens, UniProt P41595)
Estrogen receptor = target: T1, Estrogen receptor (Homo sapiens, UniProt P03372); type: functional
T1 sequence (P03372 whole entry): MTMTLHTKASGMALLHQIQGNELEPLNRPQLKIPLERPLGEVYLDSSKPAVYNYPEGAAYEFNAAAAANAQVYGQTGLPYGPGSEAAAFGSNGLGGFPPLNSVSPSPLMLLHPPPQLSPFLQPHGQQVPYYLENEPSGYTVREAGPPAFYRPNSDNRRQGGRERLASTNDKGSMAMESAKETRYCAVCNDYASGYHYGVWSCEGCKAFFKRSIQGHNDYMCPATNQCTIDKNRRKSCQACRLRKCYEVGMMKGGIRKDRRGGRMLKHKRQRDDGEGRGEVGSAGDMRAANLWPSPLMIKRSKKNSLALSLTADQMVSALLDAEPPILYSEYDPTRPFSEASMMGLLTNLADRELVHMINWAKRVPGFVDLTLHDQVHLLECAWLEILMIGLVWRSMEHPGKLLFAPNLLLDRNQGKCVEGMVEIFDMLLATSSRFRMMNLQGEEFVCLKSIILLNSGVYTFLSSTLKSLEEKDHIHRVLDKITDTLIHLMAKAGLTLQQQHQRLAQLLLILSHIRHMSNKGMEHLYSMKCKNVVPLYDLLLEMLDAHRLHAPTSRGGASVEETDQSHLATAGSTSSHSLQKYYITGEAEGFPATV

D(1A) dopamine receptor = D(1A) dopamine receptor (Homo sapiens, UniProt P21728)
D(4) dopamine receptor = target: T2, D(4) dopamine receptor (Homo sapiens, UniProt P21917)
T2 sequence (P21917 whole entry): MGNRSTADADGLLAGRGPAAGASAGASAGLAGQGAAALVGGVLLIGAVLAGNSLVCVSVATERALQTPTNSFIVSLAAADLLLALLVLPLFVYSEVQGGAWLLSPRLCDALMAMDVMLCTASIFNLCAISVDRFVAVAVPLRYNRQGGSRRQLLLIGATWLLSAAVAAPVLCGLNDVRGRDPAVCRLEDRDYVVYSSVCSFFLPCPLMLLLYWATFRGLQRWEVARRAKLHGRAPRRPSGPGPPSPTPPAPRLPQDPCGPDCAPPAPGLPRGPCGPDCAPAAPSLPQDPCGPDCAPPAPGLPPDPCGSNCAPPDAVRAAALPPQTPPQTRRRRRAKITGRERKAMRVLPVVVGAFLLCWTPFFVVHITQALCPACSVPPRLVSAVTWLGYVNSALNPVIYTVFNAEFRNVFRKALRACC

Thromboxane A2 receptor = target: T3, Thromboxane A2 receptor (Homo sapiens, UniProt P21731); type: functional
T3 sequence (P21731 whole entry): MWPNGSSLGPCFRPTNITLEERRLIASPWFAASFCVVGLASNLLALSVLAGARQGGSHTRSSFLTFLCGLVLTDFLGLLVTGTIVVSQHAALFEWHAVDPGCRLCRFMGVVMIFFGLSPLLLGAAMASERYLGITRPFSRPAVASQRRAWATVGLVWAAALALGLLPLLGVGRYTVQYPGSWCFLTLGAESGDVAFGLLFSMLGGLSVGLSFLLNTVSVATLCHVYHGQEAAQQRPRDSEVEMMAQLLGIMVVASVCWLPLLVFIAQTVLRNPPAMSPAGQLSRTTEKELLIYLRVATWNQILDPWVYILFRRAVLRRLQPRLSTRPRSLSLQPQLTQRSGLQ

[3] = target: Receptor tyrosine-protein kinase erbB-2 (Homo sapiens, UniProt P04626); type: functional
Acetylcholinesterase = Acetylcholinesterase (Homo sapiens, UniProt P22303); type: functional
[4] = target: T4, Alpha-1A adrenergic receptor (Homo sapiens, UniProt P35348)
T4 sequence (P35348 whole entry): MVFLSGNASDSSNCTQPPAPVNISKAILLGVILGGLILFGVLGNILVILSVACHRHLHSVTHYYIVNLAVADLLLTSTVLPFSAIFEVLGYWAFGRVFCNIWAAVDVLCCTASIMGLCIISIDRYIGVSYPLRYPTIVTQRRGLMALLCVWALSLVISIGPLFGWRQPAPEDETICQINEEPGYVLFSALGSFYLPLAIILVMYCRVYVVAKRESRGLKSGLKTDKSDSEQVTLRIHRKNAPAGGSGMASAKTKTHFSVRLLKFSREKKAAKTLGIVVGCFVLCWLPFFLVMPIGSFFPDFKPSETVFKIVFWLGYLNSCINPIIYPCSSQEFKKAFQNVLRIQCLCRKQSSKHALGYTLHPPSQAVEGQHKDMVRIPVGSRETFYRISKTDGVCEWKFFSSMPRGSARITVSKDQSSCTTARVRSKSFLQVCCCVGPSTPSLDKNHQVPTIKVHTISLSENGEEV

[5] = target: Hydroxycarboxylic acid receptor 2 (Homo sapiens, UniProt Q8TDS4)
Also: assay procedure not described here.

Receptor tyrosine-protein kinase erbB-2, sequence (P04626 whole entry): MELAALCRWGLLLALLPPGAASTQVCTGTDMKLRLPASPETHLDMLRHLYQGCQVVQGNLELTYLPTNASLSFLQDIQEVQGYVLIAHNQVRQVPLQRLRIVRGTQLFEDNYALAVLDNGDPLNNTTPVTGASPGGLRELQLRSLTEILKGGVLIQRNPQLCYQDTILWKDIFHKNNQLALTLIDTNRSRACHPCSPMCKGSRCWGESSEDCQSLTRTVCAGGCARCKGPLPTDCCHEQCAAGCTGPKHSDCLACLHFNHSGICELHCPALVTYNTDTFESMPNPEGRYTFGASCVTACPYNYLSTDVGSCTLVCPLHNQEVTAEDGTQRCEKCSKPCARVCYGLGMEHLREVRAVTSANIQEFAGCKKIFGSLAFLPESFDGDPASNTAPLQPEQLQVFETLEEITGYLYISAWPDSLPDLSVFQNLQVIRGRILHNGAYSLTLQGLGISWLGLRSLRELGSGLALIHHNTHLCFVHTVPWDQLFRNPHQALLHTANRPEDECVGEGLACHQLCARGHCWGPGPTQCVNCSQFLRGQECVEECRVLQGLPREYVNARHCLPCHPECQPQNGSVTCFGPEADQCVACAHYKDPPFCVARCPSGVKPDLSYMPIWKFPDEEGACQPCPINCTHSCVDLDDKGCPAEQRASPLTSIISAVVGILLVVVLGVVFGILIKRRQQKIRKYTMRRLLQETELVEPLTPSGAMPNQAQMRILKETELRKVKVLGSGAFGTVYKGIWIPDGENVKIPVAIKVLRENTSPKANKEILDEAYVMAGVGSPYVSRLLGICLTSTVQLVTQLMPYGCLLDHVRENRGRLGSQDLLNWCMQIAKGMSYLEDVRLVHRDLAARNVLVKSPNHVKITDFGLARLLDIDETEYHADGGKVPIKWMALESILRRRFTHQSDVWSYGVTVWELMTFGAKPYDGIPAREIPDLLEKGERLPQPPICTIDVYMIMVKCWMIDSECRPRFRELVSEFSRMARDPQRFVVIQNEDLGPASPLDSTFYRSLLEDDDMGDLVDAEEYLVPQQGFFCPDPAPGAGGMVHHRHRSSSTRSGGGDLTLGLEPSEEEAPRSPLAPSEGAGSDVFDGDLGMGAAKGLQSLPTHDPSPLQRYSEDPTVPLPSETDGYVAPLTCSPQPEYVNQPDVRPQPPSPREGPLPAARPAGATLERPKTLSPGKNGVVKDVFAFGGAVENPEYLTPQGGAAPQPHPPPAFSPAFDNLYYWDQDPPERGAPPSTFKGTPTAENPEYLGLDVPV
Hydroxycarboxylic acid receptor 2, sequence (Q8TDS4 whole entry): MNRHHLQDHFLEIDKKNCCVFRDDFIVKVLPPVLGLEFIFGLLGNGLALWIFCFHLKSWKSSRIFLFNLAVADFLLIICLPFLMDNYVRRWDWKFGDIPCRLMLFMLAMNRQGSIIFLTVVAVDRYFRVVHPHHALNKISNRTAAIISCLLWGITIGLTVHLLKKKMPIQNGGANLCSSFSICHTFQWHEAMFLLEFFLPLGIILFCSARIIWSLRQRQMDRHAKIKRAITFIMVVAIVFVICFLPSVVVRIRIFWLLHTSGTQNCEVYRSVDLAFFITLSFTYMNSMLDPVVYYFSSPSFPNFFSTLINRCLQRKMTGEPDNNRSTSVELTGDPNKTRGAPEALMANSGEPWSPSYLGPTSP
Acetylcholinesterase, sequence (P22303 whole entry): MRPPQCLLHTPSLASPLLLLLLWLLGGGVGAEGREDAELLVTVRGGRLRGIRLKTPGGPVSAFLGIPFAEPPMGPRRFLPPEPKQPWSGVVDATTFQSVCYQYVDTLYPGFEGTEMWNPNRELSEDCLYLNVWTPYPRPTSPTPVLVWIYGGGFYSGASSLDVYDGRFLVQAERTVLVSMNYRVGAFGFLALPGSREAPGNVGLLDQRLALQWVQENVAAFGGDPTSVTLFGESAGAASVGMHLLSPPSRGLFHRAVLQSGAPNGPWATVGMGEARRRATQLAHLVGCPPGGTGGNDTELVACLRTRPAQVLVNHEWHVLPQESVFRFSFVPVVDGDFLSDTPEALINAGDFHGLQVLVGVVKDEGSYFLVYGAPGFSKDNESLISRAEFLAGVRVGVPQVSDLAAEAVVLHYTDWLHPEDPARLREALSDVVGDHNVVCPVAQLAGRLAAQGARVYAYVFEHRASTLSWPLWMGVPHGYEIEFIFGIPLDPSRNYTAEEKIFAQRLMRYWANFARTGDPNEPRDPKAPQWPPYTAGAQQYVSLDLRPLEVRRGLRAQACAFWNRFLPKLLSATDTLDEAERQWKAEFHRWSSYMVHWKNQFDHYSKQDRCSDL
D(1A) dopamine receptor, sequence (P21728 whole entry): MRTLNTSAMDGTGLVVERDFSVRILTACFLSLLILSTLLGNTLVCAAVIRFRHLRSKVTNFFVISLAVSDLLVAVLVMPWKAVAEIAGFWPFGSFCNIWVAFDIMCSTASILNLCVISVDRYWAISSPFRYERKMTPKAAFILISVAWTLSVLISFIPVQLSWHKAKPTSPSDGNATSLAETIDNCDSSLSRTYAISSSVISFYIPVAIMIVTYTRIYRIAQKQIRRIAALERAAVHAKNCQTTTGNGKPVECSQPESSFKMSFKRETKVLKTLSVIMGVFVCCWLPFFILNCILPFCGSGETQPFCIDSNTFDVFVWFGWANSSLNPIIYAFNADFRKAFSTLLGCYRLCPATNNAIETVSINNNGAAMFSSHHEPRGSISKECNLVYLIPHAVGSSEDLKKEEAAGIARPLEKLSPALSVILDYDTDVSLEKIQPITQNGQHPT
5-hydroxytryptamine receptor 2B, sequence (P41595 whole entry): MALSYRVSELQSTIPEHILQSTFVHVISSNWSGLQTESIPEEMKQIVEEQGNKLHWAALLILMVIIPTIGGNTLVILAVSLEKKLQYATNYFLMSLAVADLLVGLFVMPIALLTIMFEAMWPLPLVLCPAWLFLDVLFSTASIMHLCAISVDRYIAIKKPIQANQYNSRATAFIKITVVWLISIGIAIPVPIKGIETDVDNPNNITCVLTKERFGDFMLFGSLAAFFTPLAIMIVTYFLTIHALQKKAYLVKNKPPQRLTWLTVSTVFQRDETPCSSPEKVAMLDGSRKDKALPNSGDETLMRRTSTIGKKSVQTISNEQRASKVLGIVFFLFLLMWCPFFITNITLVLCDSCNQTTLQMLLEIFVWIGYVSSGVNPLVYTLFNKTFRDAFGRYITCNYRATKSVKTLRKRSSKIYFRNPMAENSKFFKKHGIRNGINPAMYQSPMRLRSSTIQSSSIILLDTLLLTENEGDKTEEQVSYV
Substance-P receptor, sequence (P25103 whole entry): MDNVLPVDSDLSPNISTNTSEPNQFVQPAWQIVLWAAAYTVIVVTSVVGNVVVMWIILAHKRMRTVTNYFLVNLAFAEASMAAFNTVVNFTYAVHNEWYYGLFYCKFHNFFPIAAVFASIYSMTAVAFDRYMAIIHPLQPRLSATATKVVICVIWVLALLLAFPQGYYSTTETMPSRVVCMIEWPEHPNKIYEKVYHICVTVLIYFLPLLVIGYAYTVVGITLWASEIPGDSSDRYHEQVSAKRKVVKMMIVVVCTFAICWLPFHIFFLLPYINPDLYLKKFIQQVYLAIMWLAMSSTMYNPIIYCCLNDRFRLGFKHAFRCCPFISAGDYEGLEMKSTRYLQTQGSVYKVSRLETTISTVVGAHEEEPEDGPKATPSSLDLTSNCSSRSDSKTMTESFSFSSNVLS
5-hydroxytryptamine receptor 6, sequence (P50406 whole entry): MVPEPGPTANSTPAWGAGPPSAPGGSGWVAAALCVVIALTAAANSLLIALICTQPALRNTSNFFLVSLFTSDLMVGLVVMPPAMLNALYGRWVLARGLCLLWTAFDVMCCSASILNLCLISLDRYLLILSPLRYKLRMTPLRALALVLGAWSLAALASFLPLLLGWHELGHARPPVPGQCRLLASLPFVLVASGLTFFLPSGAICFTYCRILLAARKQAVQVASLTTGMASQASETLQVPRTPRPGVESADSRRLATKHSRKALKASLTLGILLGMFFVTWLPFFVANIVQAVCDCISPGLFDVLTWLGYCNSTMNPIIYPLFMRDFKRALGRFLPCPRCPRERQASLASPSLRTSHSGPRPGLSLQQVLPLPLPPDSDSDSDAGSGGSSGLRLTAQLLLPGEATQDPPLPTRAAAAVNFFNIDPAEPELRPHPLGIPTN
Estrogen receptor beta, sequence (Q92731 whole entry): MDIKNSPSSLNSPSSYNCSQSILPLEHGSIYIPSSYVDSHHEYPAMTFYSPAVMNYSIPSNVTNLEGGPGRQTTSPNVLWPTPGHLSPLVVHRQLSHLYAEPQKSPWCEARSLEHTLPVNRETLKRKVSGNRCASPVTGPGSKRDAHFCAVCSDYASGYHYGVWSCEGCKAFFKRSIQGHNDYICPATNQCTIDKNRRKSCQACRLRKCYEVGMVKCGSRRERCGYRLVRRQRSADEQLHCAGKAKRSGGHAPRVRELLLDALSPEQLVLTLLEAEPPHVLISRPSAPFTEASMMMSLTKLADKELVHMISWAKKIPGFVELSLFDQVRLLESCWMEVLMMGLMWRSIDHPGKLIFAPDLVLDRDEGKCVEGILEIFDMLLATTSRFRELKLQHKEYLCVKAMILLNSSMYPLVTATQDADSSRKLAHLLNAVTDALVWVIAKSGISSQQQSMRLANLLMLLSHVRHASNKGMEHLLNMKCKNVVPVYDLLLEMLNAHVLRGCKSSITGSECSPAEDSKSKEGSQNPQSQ

## CCOc1nc2cccc(C(=O)O)c2n1Cc1ccc(-c2ccccc2-c2nnn[nH]2)cc1
[1]
  AC50: > 10 µM
Substance-P receptor
  AC50: > 10 µM
Estrogen receptor beta
  AC50: > 30 µM
[2]
  AC50: > 10 µM
Estrogen receptor
  AC50: > 30 µM
D(1A) dopamine receptor
  AC50: > 10 µM
D(4) dopamine receptor
  AC50: > 10 µM

## CCCc1nc2c(C)cc(-c3nc4ccccc4n3C)cc2n1Cc1ccc(-c2ccccc2C(=O)O)cc1
[1]
  AC50: > 10 µM
Substance-P receptor
  AC50: > 10 µM
Estrogen receptor beta
  AC50: > 30 µM
[2]
  AC50: > 10 µM
Estrogen receptor
  AC50: > 30 µM
D(1A) dopamine receptor
  AC50: > 10 µM
D(4) dopamine receptor
  AC50: > 10 µM

## CCOc1cc([C@@H](CS(C)(=O)=O)N2C(=O)c3cccc(NC(C)=O)c3C2=O)ccc1OC
Thromboxane A2 receptor
  AC50: > 30 µM
[3]
  AC50: > 30 µM
Acetylcholinesterase
  AC50: > 30 µM
Estrogen receptor
  AC50: > 30 µM

## Nc1c(CC(=O)O)cccc1C(=O)c1ccc(Br)cc1 [BROMFENAC]
[4]
  AC50: > 30 µM

## Cc1nnc(SCC2=C(C(=O)O)N3C(=O)[C@@H](NC(=O)Cn4cnnn4)[C@H]3SC2)s1 [CEFAZOLIN]
Thromboxane A2 receptor
  AC50: > 300 µM
[3]
  AC50: > 300 µM
Acetylcholinesterase
  AC50: > 300 µM
Estrogen receptor
  AC50: > 300 µM

## CC(C)(O/N=C(\C(=O)N[C@@H]1C(=O)N2C(C(=O)[O-])=C(C[n+]3ccccc3)CS[C@H]12)c1csc(N)n1)C(=O)O [CEFTAZIDIME]
Thromboxane A2 receptor
  AC50: > 300 µM
[3]
  AC50: > 300 µM
Acetylcholinesterase
  AC50: > 300 µM
Estrogen receptor
  AC50: 48 µM

## CC(C)NC(=N)NC(=N)Nc1ccc(Cl)c(Cl)c1 [CHLORPROGUANIL]
[4]
  AC50: 2.74 µM

## CCCNC(=O)NS(=O)(=O)c1ccc(Cl)cc1 [CHLORPROPAMIDE]
Estrogen receptor beta
  AC50: > 30 µM

## Clc1ccc(Cn2c(CN3CCCC3)nc3ccccc32)cc1 [CLEMIZOLE]
Thromboxane A2 receptor
  AC50: > 10 µM
[3]
  AC50: > 30 µM
Acetylcholinesterase
  AC50: > 30 µM

## CCC(=O)O[C@]1(C(=O)CCl)[C@@H](C)C[C@H]2[C@@H]3CCC4=CC(=O)C=C[C@]4(C)[C@@]3(F)[C@@H](O)C[C@@]21C [CLOBETASOL PROPIONATE]
Estrogen receptor
  AC50: > 30 µM

## Cc1nc(Nc2ncc(C(=O)Nc3c(C)cccc3Cl)s2)cc(N2CCN(CCO)CC2)n1 [DASATINIB]
[1]
  AC50: > 10 µM
[2]
  AC50: 7.6 µM
D(1A) dopamine receptor
  AC50: > 10 µM
D(4) dopamine receptor
  AC50: > 10 µM

## CC(C)Cc1ccc([C@H](C)C(=O)O)cc1 [DEXIBUPROFEN]
Estrogen receptor
  AC50: > 30 µM

## O=C(O)Cc1ccccc1Nc1c(Cl)cccc1Cl [DICLOFENAC]
[1]
  AC50: > 10 µM
Substance-P receptor
  AC50: > 10 µM
Estrogen receptor beta
  AC50: > 30 µM
[2]
  AC50: > 10 µM
D(1A) dopamine receptor
  AC50: > 10 µM
D(4) dopamine receptor
  AC50: > 10 µM

## CN[C@@H]1[C@H](O[C@H]2[C@H](O[C@H]3[C@H](O)[C@@H](O)[C@H](NC(=N)N)[C@@H](O)[C@@H]3NC(=N)N)O[C@@H](C)[C@]2(O)CO)O[C@@H](CO)[C@H](O)[C@H]1O [DIHYDROSTREPTOMYCIN]
[4]
  AC50: > 30 µM

## CNC[C@H](O)c1ccc(O)c(O)c1 [EPINEPHRINE]
Estrogen receptor
  AC50: > 30 µM

## O=C(O)Cc1ccccc1Oc1ccc(Cl)cc1Cl [FENCLOFENAC]
Substance-P receptor
  AC50: > 10 µM
[2]
  AC50: > 10 µM
[5]
  AC50: > 10 µM
D(1A) dopamine receptor
  AC50: > 10 µM
D(4) dopamine receptor
  AC50: > 10 µM

## Cc1onc(-c2c(F)cccc2Cl)c1C(=O)N[C@@H]1C(=O)N2[C@@H]1SC(C)(C)[C@@H]2C(=O)O [FLOXACILLIN]
Thromboxane A2 receptor
  AC50: > 30 µM
[3]
  AC50: > 30 µM
Acetylcholinesterase
  AC50: > 30 µM

## Cc1ccc(C)c(OCCCC(C)(C)C(=O)O)c1 [GEMFIBROZIL]
Substance-P receptor
  AC50: > 10 µM
Estrogen receptor beta
  AC50: > 30 µM
[2]
  AC50: > 10 µM
[5]
  AC50: > 10 µM
D(1A) dopamine receptor
  AC50: > 10 µM
D(4) dopamine receptor
  AC50: > 10 µM

## C#C[C@]1(O)C=C[C@H]2[C@@H]3CCC4=CC(=O)CC[C@@H]4[C@H]3CC[C@@]21CC [GESTODENE]
[4]
  AC50: > 30 µM

## COc1cc(C(C)=O)ccc1OCCCN1CCC(c2noc3cc(F)ccc23)CC1 [ILOPERIDONE]
[1]
  AC50: 0.257 µM
Substance-P receptor
  AC50: > 10 µM
Estrogen receptor
  AC50: > 30 µM
D(1A) dopamine receptor
  AC50: 0.0684 µM
D(4) dopamine receptor
  AC50: 0.0209 µM

## CC[C@H](C)C(=O)O[C@H]1C[C@@H](C)C=C2C=C[C@H](C)[C@H](CC[C@@H]3C[C@@H](O)CC(=O)O3)[C@H]21 [LOVASTATIN]
Substance-P receptor
  AC50: > 10 µM
Estrogen receptor beta
  AC50: > 30 µM
[2]
  AC50: > 10 µM
[5]
  AC50: > 10 µM
D(1A) dopamine receptor
  AC50: > 10 µM
D(4) dopamine receptor
  AC50: > 10 µM

## CC[C@@H](CO)NC(=O)[C@@H]1C=C2c3cccc4c3c(cn4C)C[C@H]2N(C)C1 [METHYSERGIDE]
Estrogen receptor beta
  AC50: 24.5 µM

## CC(CN1c2ccccc2Sc2ccccc21)N(C)C (centres undefined) [PROMETHAZINE]
Substance-P receptor
  AC50: > 10 µM
Estrogen receptor beta
  AC50: > 30 µM
[2]
  AC50: 0.0679 µM
[5]
  AC50: > 10 µM
D(1A) dopamine receptor
  AC50: 3.38 µM
[4]
  AC50: 0.03 µM

## CN(CCOc1ccc(CC2SC(=O)NC2=O)cc1)c1ccccn1 (centres undefined) [ROSIGLITAZONE]
[1]
  AC50: > 10 µM
Substance-P receptor
  AC50: > 10 µM
Estrogen receptor beta
  AC50: > 30 µM
[2]
  AC50: > 10 µM
D(1A) dopamine receptor
  AC50: > 10 µM
D(4) dopamine receptor
  AC50: > 10 µM

## S=P(N1CC1)(N1CC1)N1CC1 [THIOTEPA]
Thromboxane A2 receptor
  AC50: > 10 µM
[3]
  AC50: > 30 µM
Acetylcholinesterase
  AC50: > 30 µM
Estrogen receptor
  AC50: > 30 µM

## CC(C)C[C@H](NC(=O)[C@@H](O)[C@H](N)Cc1ccccc1)C(=O)O [UBENIMEX]
[4]
  AC50: > 30 µM

## CC(C)[C@H](N)C(=O)OCCOCn1cnc2c(=O)[nH]c(N)nc21 [VALACYCLOVIR]
Substance-P receptor
  AC50: > 10 µM
Estrogen receptor beta
  AC50: > 30 µM
[2]
  AC50: > 10 µM
[5]
  AC50: > 10 µM
D(1A) dopamine receptor
  AC50: > 10 µM
D(4) dopamine receptor
  AC50: > 10 µM

## O=C1Cc2cc(CCN3CCN(c4nsc5ccccc45)CC3)c(Cl)cc2N1 [ZIPRASIDONE]
Estrogen receptor beta
  AC50: > 30 µM
[2]
  AC50: 0.0137 µM
[5]
  AC50: > 10 µM
